Results published in patent publication EP0973790B1, “ESTRA-5(10),7-DIENES WITH ESTROGENIC ACTIVITY” (Wyeth, priority 1997, dated 1998).
pKi: −log10 of the molar value.

Tests used:
[1] = target: human estrogen receptor (hER-α) (Homo sapiens, UniProt P03372); test: Estrogen receptor binding, whole cell test procedure; details: comparison values for known estrogens
Immature rats = test: In vivo uterotropic activity; details: for Uterine Weight (mg) ± SD: n=6/group

Chain of human estrogen receptor (hER-α) (P03372 whole entry): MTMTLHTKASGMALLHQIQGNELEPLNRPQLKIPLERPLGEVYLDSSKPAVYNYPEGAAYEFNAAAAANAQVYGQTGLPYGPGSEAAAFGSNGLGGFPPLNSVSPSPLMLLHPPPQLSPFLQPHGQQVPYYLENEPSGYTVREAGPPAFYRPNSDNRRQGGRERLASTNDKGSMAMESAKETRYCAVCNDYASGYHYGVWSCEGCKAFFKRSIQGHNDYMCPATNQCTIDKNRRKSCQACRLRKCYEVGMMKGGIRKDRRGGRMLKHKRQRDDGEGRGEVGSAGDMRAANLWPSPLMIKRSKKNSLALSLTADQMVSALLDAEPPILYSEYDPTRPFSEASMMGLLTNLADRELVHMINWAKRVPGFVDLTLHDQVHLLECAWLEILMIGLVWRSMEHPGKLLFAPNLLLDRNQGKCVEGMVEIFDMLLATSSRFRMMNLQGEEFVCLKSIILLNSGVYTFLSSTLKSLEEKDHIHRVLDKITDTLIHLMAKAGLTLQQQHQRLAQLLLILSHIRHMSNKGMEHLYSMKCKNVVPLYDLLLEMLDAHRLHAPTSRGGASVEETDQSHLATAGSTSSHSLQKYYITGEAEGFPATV

Compound	Uterine Weight (mg) ± SD (Immature rats; 1 µg, three days S.C.)	Uterine Weight (mg) ± SD (Immature rats; 10 µg, three days S.C.)	Uterine Weight (mg) ± SD (Immature rats; 100 µg, three days S.C.)	Uterine Weight (mg) ± SD (Immature rats; 500 µg, three days S.C.)	further results
C[C@]12CCc3c(ccc4cc(O)ccc34)[C@@H]1CCC2=O [equilenen]	–	–	–	–	pKi [1]: 6.43
C[C@]12CC[C@@H]3c4ccc(O)cc4CC[C@H]3[C@@H]1CCC2=O [estrone, reference compound]	–	–	–	–	EC50 (Immature rats; estimated in similar test procedures): 0.2 mg/kg
CC12CCC3C(=CCC4=C3CCC(O)C4)C1CCC2=O (stereo not drawn) [5B, estra-5(10),7-dien-3β-ol-17-one]	31.7 ± 6.6 mg	43.5 ± 6.9 mg	79.7 ± 5.8 mg	82.6 ± 8.6 mg	Uterine Weight (mg) ± SD (Immature rats; 0.1 µg, three days S.C.): 34.1 ± 6.2 mg
CC12CCC3C(=CCC4=C3CCC(O)C4)C1CCC2=O (stereo not drawn) [5A, estra-5(10),7-dien-3α-ol-17-one]	28.7 ± 2.7 mg	33.3 ± 4.4 mg	66.5 ± 4.7 mg	78.9 ± 13.6 mg	estimated EC50 (Immature rats; uterine stimulation, in words relative to 5B): somewhat lower
C#C[C@]1(O)CC[C@H]2[C@@H]3CCc4cc(O)ccc4[C@H]3CC[C@@]21C [Ethinyl Estradiol, reference compound]	–	–	–	–	Uterine Weight (mg) ± SD (Immature rats; 0.5 µg, three days): 101.2 ± 2.8 mg
